Measurements from ChEMBL document CHEMBL4130388, “Recent advances of pyrazole-containing derivatives as anti-tubercular agents” (Eur J Med Chem, 2017).
≈ marks a conversion by molar mass, not a printed value.

Assays:
[1] = system: Mycobacterium tuberculosis; test: Antitubercular activity against Mycobacterium tuberculosis H37Rv by Lowensteine-Jensen method; format: functional
[2] = system: Mycobacterium tuberculosis; test: Antitubercular activity against Mycobacterium tuberculosis H37Rv; format: functional
[3] = system: Mycobacterium tuberculosis; test: Antitubercular activity against Mycobacterium tuberculosis spec.210; format: functional
[4] = system: Mycobacterium tuberculosis; test: Antitubercular activity against Mycobacterium tuberculosis spec.192; format: functional
HepG2 = test: Cytotoxicity against human HepG2 cells; format: cell-based

| Structure (SMILES) | MIC [1] [µg/mL] | MIC [2] | MIC [3] [µM] | MIC [4] [µM] | IC50 (HepG2) [µM] |
| --- | --- | --- | --- | --- | --- |
| Cc1ccccc1C1C(Cl)C(=O)N1C(=O)NCCCn1ncc2ccc([N+](=O)[O-])cc21 (configuration not stated) | 6.25 to 50 (≈ 14.1 to 113 µM) | – | – | – | – |
| O=C(Nc1ccccc1)N1CCc2c(cnn2Cc2cn(-c3ccc(Cl)cc3Cl)nn2)C1 | – | 24.7 to 200 µM | 24.7 to 200 (≈ 11.6 to 93.7 µg/mL) | 24.7 to 200 (≈ 11.6 to 93.7 µg/mL) | – |
| CCOC(=O)C1=C(C)NC(C)=C(C(=O)OCC)C1c1cn(-c2ccccc2)nc1-c1ccc(Br)cc1 | – | 0.02 µg/mL | – | – | – |
| O=C(NCCCn1ncc2ccc([N+](=O)[O-])cc21)N1C(=O)C(Cl)C1c1ccc(Cl)cc1 (configuration not stated) | 6.25 (≈ 13.5 µM) | – | – | – | – |
| CCc1ccc(-n2cc(Cn3ncc4c3CCN(C(=O)Nc3ccccc3)C4)nn2)cc1 | – | 24.7 to 200 µM | 24.7 to 200 (≈ 10.6 to 85.5 µg/mL) | 24.7 to 200 (≈ 10.6 to 85.5 µg/mL) | – |
| O=C(Nc1ccccc1)N1CCc2c(cnn2Cc2cn(-c3ccccc3I)nn2)C1 | – | 24.7 to 200 µM | 24.7 to 200 (≈ 13 to 105 µg/mL) | 24.7 to 200 (≈ 13 to 105 µg/mL) | – |
| CC1=NN(C(=O)c2cc(-c3ccc(Cl)cc3)n[nH]2)C(=O)/C1=N\Nc1ccc(Cl)cc1 | – | 0.6 µg/mL | – | – | 306 |
| O=C(NCCCn1ncc2ccc([N+](=O)[O-])cc21)N1C(=O)C(Cl)C1c1ccccc1Cl (configuration not stated) | 6.25 to 50 (≈ 13.5 to 108 µM) | – | – | – | – |
| CC1=NN(C(=O)c2cc(-c3ccc(Cl)cc3)n[nH]2)C(=O)/C1=N\Nc1ccc(F)cc1 | – | 0.35 µg/mL | – | – | > 500 |
| CC[C@@H](CO)NCCN[C@@H](CC)CO [ETHAMBUTOL] | 0.2 to 4 (≈ 0.979 to 19.6 µM) | 3.13 µg/mL | – | – | – |
| O=C(Nc1ccccc1)N1CCc2c(cnn2Cc2cn(-c3ccc(OC(F)(F)F)cc3)nn2)C1 | – | 24.7 to 200 µM | 24.7 to 200 (≈ 12 to 96.7 µg/mL) | 24.7 to 200 (≈ 12 to 96.7 µg/mL) | – |
| COC(=O)C1=C(C)NC(C)=C(C(=O)OC)C1c1cn(-c2ccccc2)nc1-c1ccc([N+](=O)[O-])cc1 | – | 0.02 µg/mL | – | – | – |
| CCOC(=O)C1=C(C)NC(C)=C(C(=O)OCC)C1c1cn(-c2ccccc2)nc1-c1ccc(F)cc1 | – | 0.02 µg/mL | – | – | – |
| Cc1cccc(C2C(Cl)C(=O)N2C(=O)NCCCn2ncc3ccc([N+](=O)[O-])cc32)c1 (configuration not stated) | 6.25 to 50 (≈ 14.1 to 113 µM) | – | – | – | – |
| O=C(NCCCn1ncc2ccc([N+](=O)[O-])cc21)N1C(=O)C(Cl)C1c1ccc([N+](=O)[O-])cc1 (configuration not stated) | 6.25 to 50 (≈ 13.2 to 106 µM) | – | – | – | – |
| Cc1ccc(-n2cc(Cn3ncc4c3CCN(C(=O)Nc3ccccc3)C4)nn2)cc1C | – | 24.7 to 200 µM | 24.7 to 200 (≈ 10.6 to 85.5 µg/mL) | 24.7 to 200 (≈ 10.6 to 85.5 µg/mL) | – |
| O=C(NCCCn1ncc2ccc([N+](=O)[O-])cc21)N1C(=O)C(Cl)C1c1ccc(O)cc1 (configuration not stated) | 6.25 to 50 (≈ 14.1 to 113 µM) | – | – | – | – |
| O=C(NCCCn1ncc2ccc([N+](=O)[O-])cc21)N1C(=O)C(Cl)C1c1ccccc1O (configuration not stated) | 6.25 to 50 (≈ 14.1 to 113 µM) | – | – | – | – |
| COc1cccc(-n2cc(Cn3ncc4c3CCN(C(=O)Nc3ccccc3)C4)nn2)c1 | – | 24.7 to 200 µM | 24.7 to 200 (≈ 10.6 to 85.9 µg/mL) | 24.7 to 200 (≈ 10.6 to 85.9 µg/mL) | – |
| COc1ccccc1C1C(Cl)C(=O)N1C(=O)NCCCn1ncc2ccc([N+](=O)[O-])cc21 (configuration not stated) | 6.25 to 50 (≈ 13.7 to 109 µM) | – | – | – | – |
| O=C(Nc1ccccc1)N1CCc2c(cnn2Cc2cn(-c3ccccc3Cl)nn2)C1 | – | 24.7 to 200 µM | 24.7 to 200 (≈ 10.7 to 86.8 µg/mL) | 24.7 to 200 (≈ 10.7 to 86.8 µg/mL) | – |
| O=C(NCCCn1ncc2ccc([N+](=O)[O-])cc21)N1C(=O)C(Cl)C1c1cccc(Cl)c1 (configuration not stated) | 6.25 to 50 (≈ 13.5 to 108 µM) | – | – | – | – |
| O=C(Nc1ccccc1)N1CCc2c(cnn2Cc2cn(-c3ccc([N+](=O)[O-])cc3)nn2)C1 | – | 24.7 to 200 µM | 24.7 to 200 (≈ 11 to 88.9 µg/mL) | 24.7 to 200 (≈ 11 to 88.9 µg/mL) | – |
| O=C(Nc1ccccc1)N1CCc2c(cnn2Cc2cn(-c3ccc(Cl)cc3)nn2)C1 | – | 24.7 to 200 µM | 24.7 to 200 (≈ 10.7 to 86.8 µg/mL) | 24.7 to 200 (≈ 10.7 to 86.8 µg/mL) | – |
| O=C(Nc1ccccc1)N1CCc2c(cnn2Cc2cn(-c3ccccc3Br)nn2)C1 | – | 24.7 to 200 µM | 24.7 to 200 (≈ 11.8 to 95.7 µg/mL) | 24.7 to 200 (≈ 11.8 to 95.7 µg/mL) | – |
| O=C(Nc1ccccc1)N1CCc2c(cnn2Cc2cn(-c3ccc(Cl)c(Cl)c3)nn2)C1 | – | 24.7 to 200 µM | 24.7 to 200 (≈ 11.6 to 93.7 µg/mL) | 24.7 to 200 (≈ 11.6 to 93.7 µg/mL) | – |
| Cc1ccc(C2C(Cl)C(=O)N2C(=O)NCCCn2ncc3ccc([N+](=O)[O-])cc32)cc1 (configuration not stated) | 6.25 to 50 (≈ 14.1 to 113 µM) | – | – | – | – |
